# Measurements reported in US10155948B2, “Pharmaceutical composition for preventing or treating diabetic complications and screening method for preventive or therapeutic agent for diabetic complications” (KANGWON NATIONAL UNIVERSITY UNIVERSITY-INDUSTRY COOPERATION …, priority 2016, dated 2018).
# Tested on: HRECs
# Assay: Visualization of actin filaments (stress fiber formation) in HRECs
# Assay type: cell-based, human
# Conditions: for VEGF-activated stress fiber formation: HRECs, 50 μM cystamine or 20 μM MDC 30 min, 10 ng/ml VEGF; for VEGF-induced stress fiber formation: summary statement, conditions not given
# Experimental: Actin filaments and VE-cadherin were visualized as previously described. For visualization of actin filaments, cells were treated with 10 ng/ml VEGF for 1 hr at 37° C., fixed with 3.7% formaldehyde, and permeabilized with 0.2% Triton X-100. […] For visualization of VE-cadherin, cells were preincubated with the TGase2 inhibitors for 30 min and treated with 10 ng/ml VEGF for 90 min at 37° C. Following fixation and permeabilization, cells were incubated overnight with a monoclonal anti-VE-cadherin antibody (1:200, Santa Cruz Biotechnology) at 4° C. Cells were then probed with an FITC-conjugated goat anti-mouse antibody (1:200, Sigma) and VE-cadherin was visualized using confocal microscopy. Adherens junctions are represented by histograms of VE-cadherin as indicated by dotted lines and were quantitatively analyzed using peak fluorescence intensities of the histograms at the single-cell level for 10 randomly selected cells per experiment.
# (A-C) HRECs were preincubated with 50 μM cystamine (Cys) and 20 μM MDC for 30 min and treated with 10 ng/ml VEGF. Stress fibers and VE-cadherin were stained and visualized by confocal microscopy as described in Research Design and Methods (n=3) ((A) Representative images of stress fibers. Scale Bar, 30 μm. (B) Representative images of VE-cadherin. Scale Bar, 10 μm). Adherens junctions are represented by histograms of VE-cadherin as indicated by dotted lines. (C) Adherens junctions were quantitatively analyzed using the peak fluorescence intensities of the histograms at the single-cell level. The results are expressed as mean±SD from three independent trials. (D) In-vitro endothelial cell monolayer permeability assay. HRECs on inserts of Transwell® Permeable Supports were incubated with 50 μM cystamine and 20 μM MDC for 30 min and treated with 10 ng/mL VEGF for 90 min. The amount of FITC-dextran that diffused to the lower chamber was measured by a microplate spectrofluorometer (n=3) (**p<0.01).
# HRECs were transfected with 100 nM human TGase2-specific siRNA (TGase2 siRNA) or 100 nM control (Ctrl) siRNA. Endothelial cells were treated with 10 ng/ml VEGF and subjected to the confocal microscopic visualization of stress fibers (A) and VE-cadherin (B), as described in Research Design and Methods (n=3). (A) TGase2 siRNA inhibition of VEGF-induced formation of stress fibers. Scale bar, 30 μm. (B) Representative images of VE-cadherin and adherens junctions represented by VE-cadherin histograms. Scale bar, 10 μm. (C) Adherens junctions were quantitatively analyzed using peak fluorescence intensities of the histograms at the single-cell level. Results are expressed as mean±SD from three independent experiments (***p<0.001).
structure (smiles),measurement,value
"CN(C)c1cccc2c(S(=O)(=O)NCCCCCN)cccc12 [MDC, monodansylcadaverine]",VEGF-activated stress fiber formation,prevented
NCCS [cysteamine],VEGF-induced stress fiber formation,prevented
NCCSSCCN [cystamine],VEGF-activated stress fiber formation,prevented
NCCc1ccc(O)c(O)c1 [dopamine],VEGF-induced stress fiber formation,prevented
